Key:
human SCD1 = target: T1, human SCD1 (Homo sapiens, UniProt O00767); assay: Growth inhibition of yeast strain expressing human SCD1 as sole desaturase (OLE1 deleted), OD600 readout; assay type: cell-based; conditions: yeast strain expressing human SCD1 as sole desaturase; growth (OD600) after 40 h at 30° C.; read-out: SCD1 IC50
T1 construct: expressed in transfected cells; host or cells: yeast strain with OLE1 deleted, plasmid-borne human SCD1 (selected in SD-Ura)
T1 sequence (O00767 1-359): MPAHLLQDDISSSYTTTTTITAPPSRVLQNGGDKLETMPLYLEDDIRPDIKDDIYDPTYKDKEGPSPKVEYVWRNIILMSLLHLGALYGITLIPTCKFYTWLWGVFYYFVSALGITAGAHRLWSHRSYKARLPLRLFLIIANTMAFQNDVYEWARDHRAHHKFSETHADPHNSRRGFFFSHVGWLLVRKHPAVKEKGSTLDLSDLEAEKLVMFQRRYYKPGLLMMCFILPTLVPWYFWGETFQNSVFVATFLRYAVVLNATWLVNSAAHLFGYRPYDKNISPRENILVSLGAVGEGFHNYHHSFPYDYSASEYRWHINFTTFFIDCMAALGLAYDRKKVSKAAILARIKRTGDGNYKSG

human SCD5 = target: T2, human SCD5 (Homo sapiens, UniProt Q86SK9); assay: Growth inhibition of yeast strain expressing human SCD5 as sole desaturase (OLE1 deleted), OD600 readout; assay type: cell-based; conditions: yeast strain expressing human SCD5 as sole desaturase; growth (OD600) after 40 h at 30° C.; read-out: SCD5 IC50
T2 construct: expressed in transfected cells; host or cells: yeast strain with OLE1 deleted, plasmid-borne human SCD5 (selected in SD-Ura)
T2 sequence (Q86SK9 1-330): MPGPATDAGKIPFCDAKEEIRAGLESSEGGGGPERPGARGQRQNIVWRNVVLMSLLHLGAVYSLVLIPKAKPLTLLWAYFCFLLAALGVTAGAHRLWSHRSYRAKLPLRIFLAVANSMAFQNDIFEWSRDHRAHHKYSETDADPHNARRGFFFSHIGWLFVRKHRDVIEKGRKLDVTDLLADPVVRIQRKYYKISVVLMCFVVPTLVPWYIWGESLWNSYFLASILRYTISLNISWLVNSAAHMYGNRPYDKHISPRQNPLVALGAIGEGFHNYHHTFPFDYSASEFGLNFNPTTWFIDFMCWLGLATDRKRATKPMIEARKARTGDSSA

Row | SMILES | IC50 (human SCD1) [nM] | IC50 (human SCD5) [nM]
1 | O=C(Nc1ccc(Cc2ccc(F)cc2)cn1)c1ccc(CO)nc1 [Compound 116, N-(5-(4-fluorobenzyl)pyridin-2-yl)-6-(hydroxymethyl)nicotinamide] | 10 | 10
2 | O=C(Nc1ccc(Cc2cccc(Cl)c2)cn1)c1ccc2nccn2c1 [Compound 155, N-(5-(3-chlorobenzyl)pyridin-2-yl)imidazo[1,2-a]pyridine-6-carboxamide] | 24700 | 7800
3 | CCn1cc(C(=O)Nc2ccc(COc3cccc(Cl)c3)cn2)ccc1=O [Compound 264] | > 45000 | 8840
4 | O=C(Nc1ccc(Cc2ccc(F)c(F)c2)cn1)c1cncc(CO)c1 [Compound 503] | 12 | 10
5 | Cn1c(C(=O)Nc2ccc(Cc3cccc(F)c3)cn2)coc1=O [Compound 283] | 2960 | 270
6 | N#Cc1ccc(NC(=O)c2ccc(Cc3ccc(F)c(F)c3)cn2)cn1 [Compound 542] | 18000 | 10
7 | CN1N=C(C(=O)Nc2ccc(OCc3cc(F)cc(C#N)c3)cn2)CCC1=O [Compound 270] | > 45000 | 6880
8 | O=C(Nc1ccc(Cc2cccc(Cl)c2)cn1)c1cc2ncncc2s1 [Compound 556] | 2300 | 10
9 | CN1N=C(C(=O)Nc2ncc(N(C)c3cccc(F)c3)s2)CCC1=O [Compound 237, N-(5-((3-fluorophenyl)(methyl)amino)thiazol-2-yl)-1-methyl-6-oxo-1,4,5,6-tetrahydropyridazine-3-carboxamide] | 7210 | 3200
10 | Cn1nc(C(=O)Nc2ccc(Cc3ccc(F)c(Cl)c3)cn2)ccc1=O [Example 46, N-(5-(3-chloro-4-fluorobenzyl)pyridin-2-yl)-1-methyl-6-oxo-1,6-dihydropyridazine-3-carboxamide] | 60 | 10
11 | Cn1cccc(C(=O)Nc2ccc(Cc3ccc(F)c(F)c3)cn2)c1=O [Compound 328] | 1760 | 10
12 | Cn1nccc(C(=O)Nc2ccc(Cc3cccc(F)c3)cn2)c1=O [Compound 546] | 320 | 27
13 | CNC(=O)c1ccc(C(=O)Nc2ccc(Cc3cccc(Cl)c3)cn2)cn1 [Compound 592] | > 45000 | 276
14 | N#Cc1ccc(C(=O)Nc2ccc(Cc3ccc(F)c(F)c3)cn2)nn1 [Compound 576] | > 45000 | 400
15 | CCn1cc(C(=O)Nc2ccc(Oc3cccc(Cl)c3)cn2)ccc1=O [Compound 165, N-[5-(3-chlorophenoxy)pyridin-2-yl]-1-ethyl-6-oxo-1,6-dihydropyridine-3-carboxamide] | 14200 | 3310
16 | CNC(=O)c1ccc(C(=O)Nc2ccc(Cc3ccc(F)c(F)c3)cn2)cn1 [Compound 593] | > 45000 | 430
17 | Cn1nc(C(=O)Nc2ccc(COc3ccccc3Cl)cn2)ccc1=O [Compound 615] | > 45000 | 79
18 | CN1N=C(C(=O)Nc2ncc(C(=O)c3cccc(F)c3)s2)CCC1=O [Compound 413] | > 45000 | > 45000
19 | Cn1cc(C(=O)Nc2ccc(Cc3cc(Cl)cc(C#N)c3)cn2)ccc1=O [Compound 618] | 510 | 22
20 | Cn1nc(C(=O)Nc2ccc(Cc3cc(F)c(F)c(F)c3)cn2)ccc1=O [Example 41, 1-methyl-6-oxo-N-(5-(3,4,5-trifluorobenzyl)pyridin-2-yl)-1,6-dihydropyridazine-3-carboxamide] | 190 | 10
21 | O=C(Nc1ccc(Cc2cccc(Cl)c2)cn1)c1ccc(=O)n(C2COC2)c1 [Compound 273] | > 45000 | 3250
22 | CN1N=C(C(=O)Nc2ccc(NCc3cccc(F)c3)cn2)CCC1=O [Compound 281] | > 45000 | 2750
23 | Cc1cc(C(=O)Nc2ccc(Cc3cccc(F)c3)cn2)cn(C)c1=O [Compound 623] | 232 | 19

Further lines, results first:

Row | IC50 (human SCD1) [nM] | IC50 (human SCD5) [nM] | SMILES
24 | > 45000 | 14600 | O=C(Nc1ccc(Cc2cccc(F)c2)cn1)c1ccc2nccn2c1 [Compound 154, N-(5-(3-fluorobenzyl)pyridin-2-yl)imidazo[1,2-a]pyridine-6-carboxamide]
25 | 190 | 10 | O=C(Nc1ccc(Cc2cccc(Cl)c2)cn1)c1ccc2nncn2c1 [Compound 146, N-(5-(3-chlorobenzyl)pyridin-2-yl)-[1,2,4]triazolo[4,3-a]pyridine-6-carboxamide]
26 | > 45000 | 3000 | Cn1ccc(C(=O)Nc2ccc(Cc3ccc(F)c(F)c3)cn2)nc1=O [Compound 548]
27 | > 45000 | 14 | Cn1nc(C(=O)Nc2ccc(Cc3cc(Cl)cc(C#N)c3)cn2)ccc1=O [Compound 626]
28 | > 45000 | 4520 | CN(C)C(=O)c1ccc(NC(=O)c2ccc(Cc3cccc(Cl)c3)cn2)cc1 [Compound 284]
29 | > 45000 | > 45000 | CN1N=C(C(=O)Nc2ncc(Cc3cccc(F)c3)nn2)CCC1=O [Compound 245]
30 | 4300 | 280 | CCn1cc(C(=O)Nc2ccc(Cc3ccc(F)c(F)c3)cn2)ccc1=O [Compound 582]
31 | > 45000 | > 45000 | Cn1nc(C(=O)Nc2ccc(Cc3cc(F)cc(Cl)c3)nn2)ccc1=O [Compound 384]
32 | 20 | 10 | O=C(Nc1ccc2nncn2c1)c1ccc(Cc2cccc(Cl)c2)cn1 [Compound 150, N-([1,2,4]triazolo[4,3-a]pyridin-6-yl)-5-(3-chlorobenzyl)picolinamide trifluoroacetic Acid]
33 | > 45000 | > 45000 | Cc1ccc(Cc2ccc(NC(=O)C3=NN(C)C(=O)CC3)nc2)cn1 [Compound 435]
34 | > 45000 | > 45000 | Cc1nc(C(=O)Nc2ccc(Cc3cccc(F)c3)cn2)ccc1F [Compound 448]
35 | > 45000 | > 45000 | O=C(Nc1ncc(Cc2cccc(F)c2)s1)C1=NN(CCO)C(=O)CC1 [Compound 420]
36 | > 45000 | > 45000 | Cn1nc(NC(=O)N[C@H]2CC[C@H](Cc3cccc(Cl)c3)CC2)ccc1=O [Compound 434]
37 | > 45000 | 1020 | CN1N=C(C(=O)Nc2ccc(Cc3cccc(F)c3)cn2)CCC1=O [Compound 6, N-(5-(3-fluorobenzyl)pyridin-2-yl)-1-methyl-6-oxo-1,4,5,6-tetrahydropyridazine-3-carboxamide]
38 | > 45000 | 16300 | Cn1nc(C(=O)Nc2cc(Cc3ccc(Cl)cc3)ccn2)ccc1=O [Compound 338]
39 | > 45000 | 10600 | Cn1cc(C(=O)Nc2ccc(Cc3cc(F)c(F)c(F)c3)nn2)ccc1=O [Compound 267]
40 | > 45000 | 380 | O=C(Nc1ccc(Cc2ccc(F)c(F)c2)cn1)c1ccc(Cl)nn1 [Compound 585]
41 | > 45000 | > 45000 | Cn1cc(C(=O)Nc2nnc(Cc3cccc(Cl)c3)s2)ccc1=O [Compound 462]
42 | > 45000 | 140 | N#Cc1cc(F)cc(Cc2ccc(NC(=O)c3cnc(Cl)cn3)nc2)c1 [Compound 646]
43 | 6020 | 910 | Cn1nc(C(=O)Nc2ccc(Cc3ccc(F)c(Cl)c3)nn2)ccc1=O [Compound 180, N-(6-(3-chloro-4-fluorobenzyl)pyridazin-3-yl)-1-methyl-6-oxo-1,6-dihydropyridazine-3-carboxamide]
44 | > 45000 | 890 | N#Cc1cnc(C(=O)Nc2ccc(Cc3ccc(F)c(F)c3)cn2)nc1 [Compound 549]
45 | > 45000 | > 45000 | Cn1cc(C(=O)N2CCC(Oc3cccc(Cl)c3)CC2)ccc1=O [Compound 464]
46 | 1080 | 20 | CCn1ccc(C(=O)Nc2ccc(Cc3cccc(F)c3)cn2)n1 [Compound 101, 1-ethyl-N-(5-(3-fluorobenzyl)pyridin-2-yl)-1H-pyrazole-3-carboxamide]
47 | 1820 | 30 | Cn1nc(NC(=O)c2ccc(Cc3ccc(F)c(F)c3)cn2)ccc1=O [Compound 312]
48 | 180 | 10 | Cn1cc(C(=O)Nc2ccc(Cc3cccc(Cl)c3)cn2)cc(F)c1=O [Compound 128, N-(5-(3-chlorobenzyl)pyridin-2-yl)-5-fluoro-1-methyl-6-oxo-1,6-dihydropyridine-3-carboxamide]
49 | > 45000 | > 45000 | CO[C@@H]1CN[C@H](C(=O)Nc2ccc(Cc3cccc(F)c3)cn2)C1 [Compound 447]
50 | > 45000 | 371 | O=C(Nc1ccc(Cc2cccc(F)c2)cn1)c1ncc(Cl)cc1F [Compound 611]

Source: patent publication US20230078764A1 (Yumanity Therapeutics, Inc., priority 2019, published 2023)
